Three compounds from ChEMBL document CHEMBL5649166, “RIP3 induces apoptosis independent of pronecrotic kinase activity” (Mol Cell, 2014) can be followed below.

For experiment [1], the target named is Tyrosine-protein kinase JAK2 (Homo sapiens) (UniProt O60674). Put plainly: Inhibition of human JAK2 using poly[Glu:Tyr] (4:1) as substrate at 1 uM in presence of 32P-ATP by Hotspot assay relative to control; values are per cent of control.
In experiment [2] the target is T1, Serine/threonine-protein kinase 4 (Homo sapiens) (UniProt Q13043).
T1 sequence (whole entry): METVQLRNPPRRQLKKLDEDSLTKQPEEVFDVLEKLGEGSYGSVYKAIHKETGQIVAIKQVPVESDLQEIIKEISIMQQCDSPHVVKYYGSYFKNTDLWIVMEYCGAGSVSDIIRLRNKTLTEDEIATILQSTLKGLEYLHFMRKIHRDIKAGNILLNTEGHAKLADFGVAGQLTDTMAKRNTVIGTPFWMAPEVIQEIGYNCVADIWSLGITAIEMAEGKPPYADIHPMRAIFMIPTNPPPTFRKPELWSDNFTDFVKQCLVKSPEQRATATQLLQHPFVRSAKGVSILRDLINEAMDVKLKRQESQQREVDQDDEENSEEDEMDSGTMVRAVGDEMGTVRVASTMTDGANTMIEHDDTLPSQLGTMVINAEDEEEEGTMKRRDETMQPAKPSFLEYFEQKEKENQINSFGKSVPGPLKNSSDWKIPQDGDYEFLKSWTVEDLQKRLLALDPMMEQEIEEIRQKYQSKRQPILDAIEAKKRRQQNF
As to the kind of experiment: Inhibition of human MST1/STK4 using KKSRGDYMTMQIG as substrate at 1 uM in presence of 32P-ATP by Hotspot assay relative to control; values are per cent of control.

Experiment [3] deals with Mitogen-activated protein kinase 10 (Homo sapiens) (UniProt P53779). As to the kind of experiment: Inhibition of human JNK3 using ATF2 as substrate at 1 uM in presence of 32P-ATP by Hotspot assay relative to control; values are per cent of control.
Experiment [4] has as its target Ribosomal protein S6 kinase beta-1 (Homo sapiens) (UniProt P23443). As to the kind of experiment: Inhibition of human p70S6K/RPS6KB1 using KKRNRTLTK as substrate at 1 uM in presence of 32P-ATP by Hotspot assay relative to control; values are per cent of control.
Experiment [5] deals with T2, Inhibitor of nuclear factor kappa-B kinase subunit alpha (Homo sapiens) (UniProt O15111).
T2 sequence (whole entry): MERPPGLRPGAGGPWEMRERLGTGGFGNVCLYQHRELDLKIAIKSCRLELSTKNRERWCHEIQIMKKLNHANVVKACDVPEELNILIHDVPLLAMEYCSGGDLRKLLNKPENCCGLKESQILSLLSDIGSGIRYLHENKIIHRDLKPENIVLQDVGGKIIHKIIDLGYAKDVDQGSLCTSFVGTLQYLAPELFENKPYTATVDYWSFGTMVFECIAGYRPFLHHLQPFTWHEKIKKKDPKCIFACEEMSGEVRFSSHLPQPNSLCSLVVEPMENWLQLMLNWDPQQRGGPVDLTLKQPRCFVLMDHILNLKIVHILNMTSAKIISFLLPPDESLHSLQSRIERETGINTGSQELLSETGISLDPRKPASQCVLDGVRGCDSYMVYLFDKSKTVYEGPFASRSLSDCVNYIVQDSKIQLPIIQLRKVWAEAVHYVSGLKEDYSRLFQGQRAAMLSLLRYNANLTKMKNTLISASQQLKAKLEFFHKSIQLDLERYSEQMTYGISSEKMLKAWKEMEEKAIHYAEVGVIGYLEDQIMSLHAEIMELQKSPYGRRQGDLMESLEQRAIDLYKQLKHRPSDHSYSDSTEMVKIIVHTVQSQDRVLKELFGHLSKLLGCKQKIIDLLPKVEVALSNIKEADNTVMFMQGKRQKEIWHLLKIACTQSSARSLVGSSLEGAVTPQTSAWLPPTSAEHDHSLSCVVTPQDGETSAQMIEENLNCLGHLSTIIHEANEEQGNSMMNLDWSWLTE
Put plainly: Inhibition of human IKKa/CHUK using KKKKERLLDDRHDSGLDSMKDEE as substrate at 1 uM in presence of 32P-ATP by Hotspot assay relative to control; values are per cent of control.

The target of experiment [6] is LIM domain kinase 1 (Homo sapiens) (UniProt P53667). Put plainly: Inhibition of human LIMK1 using cofilin 1 as substrate at 1 uM in presence of 32P-ATP by Hotspot assay relative to control; values are per cent of control.
Experiment [7] addresses Insulin-like growth factor 1 receptor (Homo sapiens) (UniProt P08069). Put plainly: Inhibition of human IGF1R using KKKSPGEYVNIEFG as substrate at 1 uM in presence of 32P-ATP by Hotspot assay relative to control; values are per cent of control.
In experiment [8] the target is Serine/threonine-protein kinase N2 (Homo sapiens) (UniProt Q16513). Put plainly: Inhibition of human PKN2/PRK2 using KKLNRTLSVA as substrate at 1 uM in presence of 32P-ATP by Hotspot assay relative to control; values are per cent of control.
Serine/threonine-protein kinase N2 (Homo sapiens), sequence (Q16513 whole entry, looked up): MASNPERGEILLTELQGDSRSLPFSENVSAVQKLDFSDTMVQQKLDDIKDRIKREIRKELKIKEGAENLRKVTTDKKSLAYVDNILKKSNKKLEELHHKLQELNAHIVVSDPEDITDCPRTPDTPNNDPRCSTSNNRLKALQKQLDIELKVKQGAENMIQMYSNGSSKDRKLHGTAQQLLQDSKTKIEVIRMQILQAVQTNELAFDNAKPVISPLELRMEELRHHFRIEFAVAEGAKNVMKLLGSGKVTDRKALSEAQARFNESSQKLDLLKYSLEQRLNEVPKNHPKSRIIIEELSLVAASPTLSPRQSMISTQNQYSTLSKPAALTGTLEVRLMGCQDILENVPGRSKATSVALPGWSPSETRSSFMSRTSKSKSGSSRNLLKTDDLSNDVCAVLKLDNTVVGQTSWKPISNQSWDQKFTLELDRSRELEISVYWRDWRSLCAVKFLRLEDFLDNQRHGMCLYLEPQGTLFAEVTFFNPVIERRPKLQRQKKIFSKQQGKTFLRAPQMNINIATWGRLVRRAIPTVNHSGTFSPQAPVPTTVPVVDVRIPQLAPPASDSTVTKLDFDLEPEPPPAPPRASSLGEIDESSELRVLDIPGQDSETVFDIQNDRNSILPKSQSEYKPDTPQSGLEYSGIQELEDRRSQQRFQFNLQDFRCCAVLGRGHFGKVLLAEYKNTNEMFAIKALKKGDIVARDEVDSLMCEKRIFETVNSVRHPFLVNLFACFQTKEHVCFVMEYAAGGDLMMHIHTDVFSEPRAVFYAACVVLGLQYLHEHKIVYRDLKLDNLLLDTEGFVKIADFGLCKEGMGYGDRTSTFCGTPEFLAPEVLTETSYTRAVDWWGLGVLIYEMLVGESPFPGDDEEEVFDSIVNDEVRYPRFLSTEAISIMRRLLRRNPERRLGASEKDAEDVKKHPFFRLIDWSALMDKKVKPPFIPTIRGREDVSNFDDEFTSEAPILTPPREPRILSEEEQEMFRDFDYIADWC

Ribosomal protein S6 kinase beta-1 (Homo sapiens), sequence (P23443 whole entry, looked up): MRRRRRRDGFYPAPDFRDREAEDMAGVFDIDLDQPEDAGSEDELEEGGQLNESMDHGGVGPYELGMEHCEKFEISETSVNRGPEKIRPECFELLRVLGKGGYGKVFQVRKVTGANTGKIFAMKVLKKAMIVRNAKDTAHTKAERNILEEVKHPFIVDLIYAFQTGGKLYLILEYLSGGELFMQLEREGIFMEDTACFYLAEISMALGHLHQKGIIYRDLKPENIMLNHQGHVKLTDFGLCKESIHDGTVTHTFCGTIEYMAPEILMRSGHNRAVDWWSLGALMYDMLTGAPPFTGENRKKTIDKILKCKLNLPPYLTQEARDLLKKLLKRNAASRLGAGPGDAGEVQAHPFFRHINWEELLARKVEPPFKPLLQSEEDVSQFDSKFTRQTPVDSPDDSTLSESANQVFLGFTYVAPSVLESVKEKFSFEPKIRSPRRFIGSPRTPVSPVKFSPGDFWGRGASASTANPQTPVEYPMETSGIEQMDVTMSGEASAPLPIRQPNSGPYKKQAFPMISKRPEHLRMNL
LIM domain kinase 1 (Homo sapiens), sequence (P53667 whole entry, looked up, the tested form may be a part): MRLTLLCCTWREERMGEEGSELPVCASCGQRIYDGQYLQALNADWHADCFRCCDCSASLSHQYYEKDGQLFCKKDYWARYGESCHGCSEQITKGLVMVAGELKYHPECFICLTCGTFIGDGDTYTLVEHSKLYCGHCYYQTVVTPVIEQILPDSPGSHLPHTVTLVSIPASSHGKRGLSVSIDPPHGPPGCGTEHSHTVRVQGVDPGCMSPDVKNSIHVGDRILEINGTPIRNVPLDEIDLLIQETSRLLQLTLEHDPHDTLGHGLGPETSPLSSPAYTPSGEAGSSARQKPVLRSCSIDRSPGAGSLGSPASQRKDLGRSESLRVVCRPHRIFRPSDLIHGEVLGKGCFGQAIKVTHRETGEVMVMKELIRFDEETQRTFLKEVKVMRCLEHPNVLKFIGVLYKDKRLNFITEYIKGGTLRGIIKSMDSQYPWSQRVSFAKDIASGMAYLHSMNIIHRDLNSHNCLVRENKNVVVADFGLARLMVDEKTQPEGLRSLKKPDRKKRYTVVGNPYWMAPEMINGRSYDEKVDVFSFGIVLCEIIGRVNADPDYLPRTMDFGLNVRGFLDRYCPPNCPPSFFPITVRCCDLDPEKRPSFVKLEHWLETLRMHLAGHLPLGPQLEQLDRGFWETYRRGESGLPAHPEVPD
Tyrosine-protein kinase JAK2 (Homo sapiens), sequence (O60674 whole entry): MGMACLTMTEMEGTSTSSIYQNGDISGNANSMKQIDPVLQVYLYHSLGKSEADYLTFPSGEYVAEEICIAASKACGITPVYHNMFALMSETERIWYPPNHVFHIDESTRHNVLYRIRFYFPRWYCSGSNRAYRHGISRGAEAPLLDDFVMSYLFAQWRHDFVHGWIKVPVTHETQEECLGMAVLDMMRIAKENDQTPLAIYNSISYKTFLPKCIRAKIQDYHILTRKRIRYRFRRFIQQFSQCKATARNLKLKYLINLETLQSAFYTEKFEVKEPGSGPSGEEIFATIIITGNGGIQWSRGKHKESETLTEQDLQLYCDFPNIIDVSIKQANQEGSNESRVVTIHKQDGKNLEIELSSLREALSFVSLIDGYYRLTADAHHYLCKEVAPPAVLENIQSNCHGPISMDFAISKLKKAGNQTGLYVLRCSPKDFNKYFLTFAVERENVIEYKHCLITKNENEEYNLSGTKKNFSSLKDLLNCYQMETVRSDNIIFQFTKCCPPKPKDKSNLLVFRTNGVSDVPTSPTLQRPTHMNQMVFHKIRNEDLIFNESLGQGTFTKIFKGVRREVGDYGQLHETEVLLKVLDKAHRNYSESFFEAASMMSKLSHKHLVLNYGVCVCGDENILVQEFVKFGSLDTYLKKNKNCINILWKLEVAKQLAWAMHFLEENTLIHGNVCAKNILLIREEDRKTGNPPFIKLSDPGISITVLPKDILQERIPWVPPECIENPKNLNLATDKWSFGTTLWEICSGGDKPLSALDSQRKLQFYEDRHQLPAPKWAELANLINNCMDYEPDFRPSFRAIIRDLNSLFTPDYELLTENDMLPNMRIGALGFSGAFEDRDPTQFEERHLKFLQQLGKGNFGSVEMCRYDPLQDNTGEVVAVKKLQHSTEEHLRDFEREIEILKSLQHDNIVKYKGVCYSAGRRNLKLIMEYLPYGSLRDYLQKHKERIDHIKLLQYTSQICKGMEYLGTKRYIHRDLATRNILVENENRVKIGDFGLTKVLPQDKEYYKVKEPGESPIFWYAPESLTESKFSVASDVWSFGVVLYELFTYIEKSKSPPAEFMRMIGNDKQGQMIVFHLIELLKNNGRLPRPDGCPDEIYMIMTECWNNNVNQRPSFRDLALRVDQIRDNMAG
Mitogen-activated protein kinase 10 (Homo sapiens), sequence (P53779 whole entry): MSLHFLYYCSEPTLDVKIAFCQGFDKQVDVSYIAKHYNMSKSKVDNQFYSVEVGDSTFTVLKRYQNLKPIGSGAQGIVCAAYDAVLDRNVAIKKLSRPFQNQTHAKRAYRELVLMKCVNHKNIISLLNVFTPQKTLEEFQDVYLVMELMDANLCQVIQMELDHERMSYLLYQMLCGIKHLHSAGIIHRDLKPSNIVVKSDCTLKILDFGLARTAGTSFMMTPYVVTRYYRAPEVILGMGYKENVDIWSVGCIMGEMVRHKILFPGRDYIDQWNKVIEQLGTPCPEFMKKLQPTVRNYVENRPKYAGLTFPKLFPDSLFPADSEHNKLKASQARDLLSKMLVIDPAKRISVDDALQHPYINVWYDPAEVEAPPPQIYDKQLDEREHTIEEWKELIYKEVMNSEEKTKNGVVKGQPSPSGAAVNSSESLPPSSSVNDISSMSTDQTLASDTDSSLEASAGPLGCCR

Consider `CC(C)S(=O)(=O)c1ccc2nccc(Nc3ccc4scnc4c3)c2c1`, for which the residual activity in experiment [1] turned out to be 102%; in experiment [2] it was 98.5%; in experiment [3], 106%; in experiment [4], 108%; in experiment [5] it was 88.2%; in experiment [6], 93%. In addition, the residual activity in experiment [7] turned out to be 100%; in experiment [8] it was 108%.

In the case of `CNC(=O)c1ccc2c(c1)ncn2-c1ccc(CC(=O)OC(C)(C)C)cc1`, the residual activity was determined as 95.7% in experiment [1]; 95.3% in experiment [2]; 104% in experiment [3]; 99.1% in experiment [4]; 89.9% in experiment [5]; 72.9% in experiment [6]. In addition, the residual activity in experiment [7] is 97.6%; in experiment [8], 93.9%.

As to `Cc1cc(-c2cnc(N)c3c(-c4ccc5scnc5c4)csc23)n(C)n1`, the residual activity in experiment [1] stood at 89.8%; in experiment [2], 96.9%; in experiment [3], 85.9%; in experiment [4] it was 93.6%; in experiment [5] it was 94.8%; in experiment [6], 65.6%. In addition, the residual activity in experiment [7] was determined as 101%; in experiment [8] it was 89.8%.
